Experimental data reported in US20090215812A1, “BIOMARKERS FOR EVALUATING LIKELIHOOD OF TUMOR SENSITIVITY TO AN MTOR INHIBITOR” (ARIAD GENE THERAPEUTICS, INC., priority 2005, published 2009).

How the values were obtained:
AN3CA = test: in vitro proliferation assay (CellTiter 96 Aqueous One Solution); assay type: cell-based, human; settings: average of 10, 33 and 100 nM, 3 days incubation, relative to untreated wells
Description: (§1) A series of in vitro proliferation assays were performed on 14 human tumor-derived cell lines exposed to AP23573 at concentrations ranging from 0.01 nM to […]. Cells were plated into 96-well plates (between 750 and 5000 cells per well as per the table below), in cell culture medium containing serial dilutions of AP23573, or in the absence of AP23573 as a control, and were then incubated for 3 days.
(§2) At the end of the incubation, the number of cells in each well (cell viability) was determined using a CellTiter 96® Aqueous One Solution Cell Proliferation metabolic activity assay kit (Promega). This assay is based on the use of a reagent that monitors the total reducing environment of a population of cells. The quantity of reduced products, which is determined spectrophotometrically, is directly proportional to the number of viable cells in the culture. The percentage of cells remaining after treatment with each concentration of AP23573 was then determined relative to the number of cells remaining in the untreated wells.
(§3) For each cell line the percentage cells remaining after treatment with AP23573 reached a plateau between 1 and 10 nM. Thus the inhibitory effect of AP23573 on cell proliferation was calculated by taking the average of the percentage of cells remaining at the 10, 33 and 100 nM concentration levels. A lower percentage of cells remaining reflects a larger inhibitory effect of AP23573. The experiment was performed two or three times for each cell line and the results averaged.

BT474 = test: as above; assay type: cell-based, human; settings: average of 10, 33 and 100 nM, 3 days incubation, relative to untreated wells
Description: as §1, §2, §3

DU145 = test: as above; assay type: cell-based, human; settings: average of 10, 33 and 100 nM, 3 days incubation, relative to untreated wells
Description: as §1, §2, §3

ES2 = test: as above; assay type: cell-based, human; settings: average of 10, 33 and 100 nM, 3 days incubation, relative to untreated wells
Description: as §1, §2, §3

HCT116 = test: as above; assay type: cell-based, human
Description: as §1, §2, §3

HEC1A = test: as above; assay type: cell-based, human; settings: average of 10, 33 and 100 nM, 3 days incubation, relative to untreated wells
Description: as §1, §2, §3

HT1080 = test: as above; assay type: cell-based, human
Description: as §1, §2, §3

MCF7 = test: as above; assay type: cell-based, human; settings: average of 10, 33 and 100 nM, 3 days incubation, relative to untreated wells
Description: as §1, §2, §3

MDA-435S = test: as above; assay type: cell-based, human; settings: average of 10, 33 and 100 nM, 3 days incubation, relative to untreated wells
Description: as §1, §2, §3

MDA-453 = test: as above; assay type: cell-based, human; settings: average of 10, 33 and 100 nM, 3 days incubation, relative to untreated wells
Description: as §1, §2, §3

MDA-468 = test: as above; assay type: cell-based, human; settings: average of 10, 33 and 100 nM, 3 days incubation, relative to untreated wells
Description: as §1, §2, §3

PC3 = test: as above; assay type: cell-based, human; settings: average of 10, 33 and 100 nM, 3 days incubation, relative to untreated wells
Description: as §1, §2, §3

SKBR3 = test: as above; assay type: cell-based, human; settings: average of 10, 33 and 100 nM, 3 days incubation, relative to untreated wells
Description: as §1, §2, §3

SKOV3 = test: as above; assay type: cell-based, human; settings: average of 10, 33 and 100 nM, 3 days incubation, relative to untreated wells
Description: as §1, §2, §3

[1] = system: 14 human tumor-derived cell lines; test: in vitro proliferation assays on panel of tumor cell lines; assay type: cell-based
Description: as §1, §2
For each cell line the percentage cells remaining after treatment with AP23573 reached a plateau between 1 and 10 nM. Thus the inhibitory effect of AP23573 on cell proliferation was calculated by taking the average of the percentage of cells remaining at the 10, 33 and 100 nM concentration levels. […]

sarcoma = test: ongoing clinical trial of AP23573 in sarcoma; assay type: in vivo, human; settings: number of patients
Excerpt: The experiment is repeated several times using either mixed sets of samples that included samples from tumors of various types or using sets of samples from a single tumor type (prostate cancer, leiomyosarcoma, osteosarcoma). Some of the samples are obtained from an ongoing clinical trial of AP23573 in sarcoma, results of which are presented below: […]

[2] = average of 10, 33 and 100 nM, 3 days incubation, relative to untreated wells

CO[C@H]1C[C@@H]2CC[C@@H](C)[C@@](O)(O2)C(=O)C(=O)N2CCCC[C@H]2C(=O)O[C@H]([C@H](C)C[C@@H]2CC[C@@H](OP(C)(C)=O)[C@H](OC)C2)CC(=O)[C@H](C)/C=C(\C)[C@@H](O)[C@@H](OC)C(=O)[C@H](C)C[C@H](C)/C=C/C=C/C=C/1C [AP23573]
Percent Cells Remaining (AN3CA): 45%
Percent Cells Remaining (BT474): 80%
Percent Cells Remaining (DU145): 81%
Percent Cells Remaining (ES2): 63%
Percent Cells Remaining (HCT116; [2]): 94%
sensitivity to AP23573 (HCT116; low FKBP12 expression level): relatively resistant
Percent Cells Remaining (HEC1A): 70%
Percent Cells Remaining (HT1080; [2]): 37%
sensitivity to AP23573 (HT1080; high FKBP12 expression level): relatively sensitive
Percent Cells Remaining (MCF7): 55%
Percent Cells Remaining (MDA-435S): 68%
Percent Cells Remaining (MDA-453): 58%
Percent Cells Remaining (MDA-468): 77%
Percent Cells Remaining (PC3): 51%
Percent Cells Remaining (SKBR3): 55%
Percent Cells Remaining (SKOV3): 61%
sensitivity to AP23573 ([1]; HEC1A, BT474, MDA468, DU145, HCT116 (lower FKBP12 expression)): lower levels of sensitivity
sensitivity to AP23573 ([1]; HT1080, PC3, ES2, SKBR3 (relatively high FKBP12 expression)): relatively high levels of sensitivity
CR/PR (complete response / partial response) (sarcoma; Bone Cohort (19)): 3
PD (progressive disease) (sarcoma; Bone Cohort (19)): 5
CR/PR (complete response / partial response) (sarcoma; Leiomyosarcoma (18)): 0
PD (progressive disease) (sarcoma; Leiomyosarcoma (18)): 6
CR/PR (complete response / partial response) (sarcoma; Liposarcoma (13)): 0
PD (progressive disease) (sarcoma; Liposarcoma (13)): 5
CR/PR (complete response / partial response) (sarcoma; Other Sarcoma (20)): 0
PD (progressive disease) (sarcoma; Other Sarcoma (20)): 7
